# Laboratory results reported in US20230348538A1, “METHOD FOR TREATMENT OF DRY EYE COMPRISNG APPLYING P55PIK INHIBITOR” (Wuhan Yicheng Biological Technology Co., Ltd., priority 2020, published 2023).
# Entries after “also recorded” stand apart in the source; their conditions may differ.
# How the values were obtained:
# [1] = tested on: dry eye model induced by 0.2% benzalkonium chloride solution; assay: Benzalkonium chloride dry eye model: conjunctival goblet cells (PAS staining); format: in vivo, C57BL/6 mice
# Protocol: The healthy male C57BL/6 mice were kept in a controlled environment with a temperature of (25±1)° C., a relative humidity of (25±5)%, and light-dark cycles (9 AM-9 PM) with simulated dawn and dusk. Forty mice (80 eyes) were treated with 5 μL of 0.2% benzalkonium chloride solution twice a day (8:00 AM and 6:00 PM) for 14 days to induce dry eye symptoms, while the remaining ten mice (20 eyes) received no treatment and served as a baseline control. […] Group A, the drug treatment group, was treated with the eye drops comprising 0.1% TAT-[…] peptide, four times a day; Group B, the solvent control group, was treated with eye drops without TAT-[…] peptide, four times a day; and Group C, the blank control group, received no treatment; on days 1, 4, and 7 after treatment, BUT, Schirmer's test I, and fluorescein sodium staining were performed; on the 7th day, the paraffin sections of the conjunctival fornix was stained by PAS stain; and the number of PAS-positive goblet cells was counted.
# [2] = tested on: volunteers diagnosed with dry eye syndrome; assay: Population experiment: volunteers with dry eye syndrome; format: in vivo, human; conditions: 0.1% eye drops, 1-2 drops
# Text: Currently, volunteers have been recruited to test the dry eye therapeutic effect of the 0.1% TAT-N16 peptide eye drops disclosed by the disclosure.
# [3] = tested on: rabbit model of dry eye (0.1% benzalkonium chloride); assay: Rabbit model of dry eye: conjunctival impression cytology (CIC), goblet cell density; format: in vivo, New Zealand white rabbits; conditions: following medication; statistically significant; FIG. 5
# Protocol: (§1) 1.2.1 Grouping: thirty New Zealand white rabbits were randomly divided into three groups, each comprising 10 rabbits: a blank control group, a solvent control group, and a drug treatment group.
# 1.2.2 Preparation of a rabbit model of dry eye: the right eye of each rabbit was used to establish a dry eye rabbit model by administering 0.1% benzalkonium chloride eye drops twice a day for 4 weeks. After 4 weeks, the dry eye rabbit model was evaluated, with the conjunctiva appearing dry, tear production being reduced, and Schirmer test values being less than 10 mm/5 min (compared to the control group, where all Schirmer test values were above 10 mm). […]
# 1.3.3 Conjunctival impression cytology (CIC) examination: CIC examination was performed on days 1, 4, and 7 after treatment; the nitrocellulose membranes were cut into two strips of 3.5 mm×3.5 mm each, soaked in distilled water for 4 h, and then dried; after surface anesthesia, the rough side of the two strips of the nitrocellulose membranes were placed on the nasal and temporal quadrants of the conjunctiva and pressed for 10 seconds to obtain surface epithelial cells; the nitrocellulose membranes were then fixed in 95% ethanol and stained with periodic acid-Schiff (PAS); the number of the goblet cells was counted under an optical microscope and graded according to the Nelson scoring system.
# [4] = tested on: rabbit model of dry eye (0.1% benzalkonium chloride); assay: Rabbit model of dry eye: Schirmer's test; format: in vivo, New Zealand white rabbits
# Protocol: as §1
# 1.2.2 Preparation of a rabbit model of dry eye: the right eye of each rabbit was used to establish a dry eye rabbit model by administering 0.1% benzalkonium chloride eye drops twice a day for 4 weeks. After 4 weeks, the dry eye rabbit model was evaluated, with the conjunctiva appearing dry, tear production being reduced, and Schirmer test values being less than 10 mm/5 min (compared to the control group, where all Schirmer test values were above 10 mm).
# 1.2.3 Drug preparation and usage: a liquid formulation of 0.1% TAT-N16 peptide eye drops were prepared by dissolving the peptide raw materials in physiological saline according to a weight ratio of 0.1%. The eye drops comprising 0.1% TAT-N16 peptide were administered 2 drops, 3 times a day for 7 days. The blank control group received no treatment, and the solvent control group received physiological saline eye drops 2 drops, 3 times a day for 7 days. The normal eye group served as a normal control group.
# 1.3 Specimen collection and animal testing were conducted by the same individual. […] The rabbit conjunctiva appearance, fluorescein staining, tear film break-up time were analyzed using a slit lamp before and on days 4 and 7 after treatment; additionally, the Schirmer's test and conjunctival impression cytology (CIC) were carried out.
# 1.3.1 Schirmer's test: the corneal surface was anesthetized with oxybuprocaine hydrochloride; a cotton swab was used to absorb the fluid around the eyelid; the Schirmer tear test strips were placed at the junction of the ⅓ posterior-middle of the lower conjunctival sac of the New Zealand white rabbit, with the remaining part hanging on the skin surface; the New Zealand white rabbit was then instructed to close its eyes, and after 5 minutes, the length of wet portion of the Schirmer tear test strips was measured.
# [5] = single cases, three (case 4: three to five) times a day
substance,measurement,setting,value
"TAT-N16 peptide: cell-penetrating artificial peptide, sequence SEQ ID NO: 2, constructed by linking the peptide N16 to a TAT sequence; P55PIK inhibitor (YGRKKRRQRRRMMPYSTELIFYIEMDP)",Density of conjunctival goblet cells compared with blank control group and solvent control group,"[1]; 7 days of continuous treatment, P<0.01, FIG. 4",significantly higher
same,Number of conjunctival goblet cells (PAS-stained paraffin sections of the conjunctival fornix),[1]; after treatment with the eye drops,increased significantly
same,Dry eye symptoms within three days of use,"[2]; single case, three times a day",significantly improved
same,Conjunctival congestion after a week of use,[2]; [5],cleared up; also recorded: disappeared
same,Dry eye symptoms after a week of use,[2]; [5],essentially disappeared; also recorded: mostly disappeared; also recorded: disappeared completely; also recorded: largely eliminated
same,Dry eye symptoms on the first day of use,"[2]; single cases, three times a day",improved significantly; also recorded: significantly relief
same,Goblet cell density (CIC examination) compared to before medication,[3],gradual increase
same,Schirmer' test values,"[4]; 0 d / before treatment (baseline), drug treatment group",8.38±0.57 mm
same,Schirmer' test values,"[4]; 4 d, 0.1% eye drops 2 drops, 3 times a day",12.02±1.21 mm
same,Schirmer' test values,"[4]; 7 d, 0.1% eye drops 2 drops, 3 times a day",16.31±1.45 mm
